Measured values taken from ChEMBL document CHEMBL4419121, “Tetrahydropyridopyrazines modulators of gpr6” (2018).

How the values were obtained:
[1] = target: T1, G-protein coupled receptor 6 (Homo sapiens, UniProt P46095); assay: Modulation activity at GPR6 receptor (unknown origin) expressed in CHO-K1 cells assessed as inhibition of constitutive cAMP activity incubated for 45 mins by Perkin Elmer Lance HTRF Ultrac-AMP assay; format: functional, cell-based
[2] = target: T1, G-protein coupled receptor 6; assay: Modulation activity at GPR6 receptor (unknown origin) expressed in CHO-K1 cells assessed as inhibition of constitutive cAMP activity incubated for 45 mins in presence of 300 uM IBMX by Perkin Elmer Lance HTRF Ultrac-AMP assay; format: functional, cell-based; conditions: cho-k1
[3] = tested on: Rattus norvegicus; assay: Reversal of haloperidol-induced catalepsy in Sprague-Dawley rat model of Parkinson's disease assessed as reduction in catalepsy intensity index at 0.1 mg/kg, ip dosed along with haloperidol and measured after 30 mins relative to untreated control; format: functional; parameters: scale not given: the % may be the effect or the level left

T1 sequence (P46095 whole entry): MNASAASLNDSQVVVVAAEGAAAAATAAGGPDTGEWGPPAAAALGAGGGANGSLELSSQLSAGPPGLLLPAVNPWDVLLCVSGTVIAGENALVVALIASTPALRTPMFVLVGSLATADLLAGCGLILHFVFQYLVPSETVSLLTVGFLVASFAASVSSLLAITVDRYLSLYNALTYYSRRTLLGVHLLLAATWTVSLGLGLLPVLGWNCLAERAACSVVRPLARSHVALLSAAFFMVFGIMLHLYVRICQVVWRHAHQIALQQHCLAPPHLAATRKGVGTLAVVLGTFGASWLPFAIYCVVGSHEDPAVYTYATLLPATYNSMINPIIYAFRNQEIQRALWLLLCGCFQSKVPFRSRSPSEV

| SMILES | IC50 [1] [nM] | IC50 [2] [nM] | Activity [3] [%] |
| --- | --- | --- | --- |
| CC(=O)N1CCc2nc(NCC(F)F)c(N3CCC(Oc4ccc(F)cc4F)CC3)nc2C1 | 11.5 |  |  |
| CN1CCc2nc(NC3CC3)c(N3CCC([C@@H](F)c4ccc(F)cc4F)CC3)nc2C1 | 26.5 |  |  |
| CC1c2nc(NCC(F)F)c(N3CCC(Oc4ccc(F)cc4F)CC3)nc2CCN1C(=O)C1CC1 (stereo not given) | 85 |  |  |
| CC(C)Nc1nc2c(nc1N1CCC(C(=O)c3cc(Cl)ccc3F)CC1)CCN(C(=O)N(C)C)C2 | 32.7 |  |  |

Now from value to compound, other results behind:

| IC50 [1] [nM] | IC50 [2] [nM] | SMILES | Activity [3] [%] |
| --- | --- | --- | --- |
| 9.5 | 73.7 | CC(=O)N1CCc2nc(NC(C)C)c(N3CCC(Oc4ccc(F)cc4F)CC3)nc2C1 |  |
|  | 24.6 | CC(=O)N1CCc2nc(N3CCC(Oc4ccc(F)cc4F)CC3)c(NC(C)C)nc2C1 | -5.7 |
| 26.6 |  | COc1ccc(OC2CCN(c3nc4c(nc3NC(C)C)CCN(C)C4)CC2)c(F)c1 |  |
| 35 |  | COc1ccc(OC2CCN(c3nc4c(nc3NC(C)C)CN(C(=O)N(C)C)CC4)CC2)c(F)c1 |  |
